{"source": "patent US20050043271A1", "about": "“Heparin-containing ophthalmic agent” (priority 2001, published 2005)", "key": {"mast cells": {"tested_on": "mast cells", "settings": "without direct antihistamine effect; inhalative and intravenous application; cited from earlier work"}, "[1]": {"tested_on": "allergically caused conjunctival inflammation", "settings": "high-dosage, topical application to the eye, animals; cited from earlier work"}, "[2]": {"test": "tear film tearing time (fluorescein, slit lamp)", "type": "in vivo", "settings": "concentration of 0.1% by weight to 0.3% by weight", "description": "A further diagnostic parameter in regard to diagnosis of the “dry eye” syndrome is the tear film tearing time which makes it possible to provide information about the quality of the tear fluid. In that case for example the tear film is dyed with fluorescein and the patient is then asked to keep the eyes open as long as possible without a blink reflex. A slit lamp is then used to establish when the tear film tears open for the first time. If the period of time is less than 10 seconds, there is the suspicion of the “dry eye” syndrome."}, "[3]": {"tested_on": "cornea epithelium cells of rabbits", "test": "epithelium cell migration", "type": "cell-based", "settings": "0.1% by weight solution"}, "dry eyes": {"tested_on": "dry eyes", "test": "subjective feeling of patients in treatment of dry eyes", "type": "in vivo", "settings": "0.1% by weight in the composition", "description": "Aqueous sodium hyaluronate solutions are fluids with non-Newtonian flow properties. By virtue of that physical property, aqueous sodium hyaluronate solutions are excellently well suited as slip and lubricating agents with a good cling effect and a prolonged residence time on the conjunctival and corneal epithelia, without adversely affecting visual efficiency."}}}
{"substance": "heparin", "values": [{"measurement": "degranulation, caused by antigens, of mast cells", "setting": "mast cells", "value": "inhibits degranulation"}, {"measurement": "treatment of allergically caused conjunctival inflammation", "setting": "[1]", "value": "effective"}]}
{"substance": "hyaluronic acid", "values": [{"measurement": "prolonging the tear film tearing time", "setting": "[2]", "value": "highly effective"}]}
{"substance": "sodium hyaluronate", "values": [{"measurement": "epithelium cell migration", "setting": "[3]", "value": "increased epithelium cell migration"}, {"measurement": "subjective feeling of the patients", "setting": "dry eyes", "value": "considerably improves"}]}
